Measurements from patent publication US20250361241A1, “HPK1 INHIBITOR AND MEDICAL USE THEREOF” (Betta Pharmaceuticals Co., Ltd., priority 2022, published 2025).

Columns and labels:
[1] = system: human peripheral blood mononuclear cells; test: Detection of IFN-γ secretion in human peripheral blood mononuclear cells (anti-CD3/CD28 beads, ELISA); assay type: cell-based; details: for Maximum induction factor: IFN-γ secretion, human PBMC; for EC3x: concentration for IFN-γ secretion of human PBMC to reach 3 times the baseline, 3 days
Experimental: Pharmacological Experiment 4: Detection of IFN-γ Secretion in Human Peripheral Blood Monocytes
• (1) Take human peripheral blood mononuclear cells frozen in liquid nitrogen, thaw in a 37° C. water bath, add 5 mL of preheated RPMI-1640 complete medium (containing 10% fetal bovine serum and penicillin/streptomycin), centrifuge at 500 g for 10 minutes, and discard the supernatant; • (2) Resuspend the cells in RPMI-1640 complete medium, adjust the density to 5×10^6 cells/mL, inoculate in a low-adhesion 6-well plate (Corning, 3471), and culture at 37° C. for 2 days; • (3) Collect cultured human peripheral blood mononuclear cells, centrifuge at 500 g for 10 min, and discard the supernatant; • (4) Resuspend the cells in RPMI-1640 complete medium, adjust the density to 1×10^6 cells/mL, and inoculate them in a round-bottom 96-well plate (Jet Biofil, TCP-002-096), with 100 μL per well; • (5) Add 50 μL of the test compound to each well and incubate at 37° C. for 30 min; • (6) Take human anti-CD3/CD28 magnetic beads (Miltenyi, 130-091-441), wash once with RPMI-1640 complete medium, and adjust the density to 0.5×106 beads/mL for later use; • (7) After the compound incubation, 50 μL of anti-human CD3/CD28 magnetic beads were added to each well and cultured at 37° C. for 3 days, • (8) The cell culture supernatant was obtained and the IFN-γ secretion was detected using the Human IFN-gamma DuoSet ELISA kit (R&D, DY285B-05); • (9) The log value of concentration was used as the X-axis and the IFN-γ secretion amount was used as the Y-axis. The “log (agonist) vs. response−variable slope” equation of the analysis software GraphPad Prism 7 was used to fit the dose-effect curve, thereby obtaining the EC3x value and the maximum induction factor of the compound for the secretion of IFN-γ from human peripheral blood mononuclear cells to reach 3 times the baseline.

[2] = PK study of compound in dogs; assay type: in vivo; details: Beagle dog
Experimental: Pharmacological Experiment 6: PK Study of Compound in Dogs The compound was mixed with a solvent of saline or 10% DMSO/5% Solutol/85% saline or 10% DMSO/10% Solutol/80% saline (specific solvents are shown in the table below), vortexed and sonicated to prepare a clear oral solution. […] The drug concentration was analyzed by LC-MS/MS method, and the pharmacokinetic parameters were calculated using Phoenix WinNolin software (Pharsight, USA).

[3] = system: mouse colon cancer cell CT26; test: Efficacy in CT26 CDX model mice (subcutaneous homologous transplant tumor); assay type: in vivo, Balb/c mouse; details: after 21 days
Experimental: Pharmacological Experiment 8; Study on the Efficacy of the Compound in CT26CDX Model Mice […] The first group (G1) was a vehicle control group (10% propylene glycol/5% HS15/85% glucose). The second group (G2) was the control compound D1-administered group. […] Note: PO stands for oral gavage, QD stands for once daily dosing, and BID stands for twice daily dosing. Tumor size and mouse body weight were measured twice a week during the experiment, and the weight of the animals on that day was used as a reference for each drug administration. The tumor size was measured by using a vernier caliper to measure the length (a) and width (b) of the tumor. The tumor volume (TV) was calculated using the following formula: TV=a*b2/2 After 21 days of administration, the tumor growth inhibition rate (TGI) of each administration group is shown in Table 10.

[4] = PK study of compound in monkeys; assay type: in vivo; details: crab-eating monkey; for IV Plasma Cl_obs: IV 1 mg/kg
Experimental: Pharmacological Experiment 7: PK Study of Compound in Monkeys
The drug concentration was analyzed by LC-MS/MS method, and the pharmacokinetic parameters were calculated using Phoenix WinNolin software (Pharsight, USA).

[5] = system: Jurkat cells; test: Jurkat IL-2 secretion detection (anti-CD3/CD28 beads, ELISA); assay type: cell-based, human; details: for Maximum induction factor: IL-2 secretion, Jurkat cells; for EC3x: concentration for IL-2 secretion of Jurkat cells to reach 3 times the baseline, 20 h
Experimental: Pharmacological Experiment 5: Jurkat IL-2 Secretion Detection
• (1) Take the cultured Jurkat cells, adjust the density to 1×10^6 cells/mL, and inoculate them in a flat-bottom […] plate (Jet Biofil, TCP011096), with 100 μL per well, • (2) Add 50 μL of the test compound to each well and incubate at 37° C. for 30 min; • (3) Take human anti-CD3/CD28 magnetic beads (Miltenyi, 130-091-441), wash once with RPMI-1640 complete medium, and adjust the density to 4×106 beads/mL for later use; • (4) After the compound incubation, 50 μL of anti-human CD3/CD28 magnetic beads were added to each well and cultured at 37° C. for 20 h, • (5) The cell culture supernatant was obtained and the IL-2 secretion was detected using the Human IL-2 DuoSet ELISA kit (R&D, DY008); • (6) The log value of the concentration was used as the X-axis and the IL-2 secretion was used as the Y-axis. The “log (agonist) vs. response-variable slope” equation of the analysis software GraphPad Prism 7 was used to fit the dose-effect curve, thereby obtaining the […] and the […]

[6] = molecular target: T1, HPK1 (Homo sapiens (Human), UniProt Q92918); test: HPK1 enzyme activity detection (1 mM ATP system), ADP-Glo, Pharmacological Experiment 1; assay type: biochemical
T1 sequence (Q92918 whole entry, species assumed): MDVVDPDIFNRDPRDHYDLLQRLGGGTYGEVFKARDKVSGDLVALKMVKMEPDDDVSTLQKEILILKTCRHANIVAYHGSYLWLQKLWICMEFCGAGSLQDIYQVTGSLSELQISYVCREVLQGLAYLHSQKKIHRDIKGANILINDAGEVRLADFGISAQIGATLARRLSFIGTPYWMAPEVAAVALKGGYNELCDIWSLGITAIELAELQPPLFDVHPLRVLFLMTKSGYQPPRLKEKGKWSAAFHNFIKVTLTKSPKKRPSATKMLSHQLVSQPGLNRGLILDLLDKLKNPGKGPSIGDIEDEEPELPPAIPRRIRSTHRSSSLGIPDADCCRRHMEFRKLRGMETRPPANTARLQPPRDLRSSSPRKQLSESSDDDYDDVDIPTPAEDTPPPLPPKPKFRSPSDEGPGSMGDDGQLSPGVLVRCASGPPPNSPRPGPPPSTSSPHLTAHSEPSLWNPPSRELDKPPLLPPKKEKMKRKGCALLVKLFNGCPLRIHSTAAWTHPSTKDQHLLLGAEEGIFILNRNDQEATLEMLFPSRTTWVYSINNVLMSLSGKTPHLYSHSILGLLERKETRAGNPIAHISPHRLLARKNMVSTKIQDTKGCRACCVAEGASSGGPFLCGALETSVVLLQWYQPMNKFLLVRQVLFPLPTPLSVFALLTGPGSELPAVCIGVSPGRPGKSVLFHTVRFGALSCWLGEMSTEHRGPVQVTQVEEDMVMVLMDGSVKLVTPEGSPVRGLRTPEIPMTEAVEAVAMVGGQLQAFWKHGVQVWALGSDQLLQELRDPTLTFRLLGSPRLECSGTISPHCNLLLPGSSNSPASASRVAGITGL
Experimental: Pharmacological Experiment 1: HPK1 Enzyme Activity Detection (1 mM ATP System)
• (1) Take ADP-GloTMKinase Assay Kit (Promega, Cat. No. V9102) to prepare 4× kinase buffer. • (2) Compound gradient dilution: The compound to be tested is diluted 3-fold, and 11 gradient concentrations are set, and each concentration is set for duplicate well detection. Serial dilutions were made in a 384-well plate to the corresponding 100×final concentration solution, and then 0.1 μL was transferred to the 384-well reaction plate for testing using Echo. Transfer 0.1 μL of 100% DMSO to the smallest and largest wells. • (3) Prepare HPK1 enzyme working solution using 4× kinase buffer. • (4) Add 5 μL of HPK1 enzyme working solution to each well and 5 μL of 1× kinase buffer to the smallest well. Centrifuge at 1000 rpm for 1 min and incubate at 25° C. for 15 min. • (5) During the incubation period, prepare the substrate working solution using 4× kinase buffer. • (6) Add 5 μL of substrate working solution containing 1 mM ATP to each well of the reaction plate, centrifuge at 1000 rpm for 1 min, and incubate at 25° C. for 60 min. • (7) At the end of incubation, add 5 μL of ADP Glo reagent to each well. Centrifuge at 1000 rpm for 1 min and incubate at 25° C. for 60 min. • (8) Add 10 μL of detection solution to each well, centrifuge at 1000 rpm for 1 min, and incubate at 25° C. for 60 min. • (9) Read using EnVision.
Inhibition rate calculation formula:
[formula] • Vehicle: Reading value of DMSO control well • Blank: No enzyme well reading • Largest well: Reading value of DMSO control well • Minimum well: No enzyme well reading
The log value of the concentration was used as the X-axis and the percentage inhibition rate was used as the Y-axis. The “log (inhibitor) vs. response—variable slope” of the analysis software GraphPad Prism 5 was used to fit the dose-effect curve to obtain the IC 50 value of the compound's inhibition of kinase binding.
See Table 1 for the enzymatic IC 50 data of the example compounds on HPK1.

[7] = molecular target: T1, HPK1; test: HPK1 enzyme activity detection (1 mM ATP system), ADP-Glo with MBP substrate, Pharmacological Experiment 2; assay type: biochemical
Outline: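 Compound in DMSO preincubated with HPK1 for 15 min at 25 °C, then reaction started with ATP (1 mM system) and MBP substrate for 60 min at 25 °C. ADP formed quantified by ADP-Glo luminescence; IC50 derived from percentage inhibition.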

[8] = molecular target: GLK (Homo sapiens (Human), UniProt Q8IVH8); test: GLK kinase assay (1 mM ATP system), ADP-Glo; assay type: biochemical
GLK, sequence (Q8IVH8 whole entry, species assumed): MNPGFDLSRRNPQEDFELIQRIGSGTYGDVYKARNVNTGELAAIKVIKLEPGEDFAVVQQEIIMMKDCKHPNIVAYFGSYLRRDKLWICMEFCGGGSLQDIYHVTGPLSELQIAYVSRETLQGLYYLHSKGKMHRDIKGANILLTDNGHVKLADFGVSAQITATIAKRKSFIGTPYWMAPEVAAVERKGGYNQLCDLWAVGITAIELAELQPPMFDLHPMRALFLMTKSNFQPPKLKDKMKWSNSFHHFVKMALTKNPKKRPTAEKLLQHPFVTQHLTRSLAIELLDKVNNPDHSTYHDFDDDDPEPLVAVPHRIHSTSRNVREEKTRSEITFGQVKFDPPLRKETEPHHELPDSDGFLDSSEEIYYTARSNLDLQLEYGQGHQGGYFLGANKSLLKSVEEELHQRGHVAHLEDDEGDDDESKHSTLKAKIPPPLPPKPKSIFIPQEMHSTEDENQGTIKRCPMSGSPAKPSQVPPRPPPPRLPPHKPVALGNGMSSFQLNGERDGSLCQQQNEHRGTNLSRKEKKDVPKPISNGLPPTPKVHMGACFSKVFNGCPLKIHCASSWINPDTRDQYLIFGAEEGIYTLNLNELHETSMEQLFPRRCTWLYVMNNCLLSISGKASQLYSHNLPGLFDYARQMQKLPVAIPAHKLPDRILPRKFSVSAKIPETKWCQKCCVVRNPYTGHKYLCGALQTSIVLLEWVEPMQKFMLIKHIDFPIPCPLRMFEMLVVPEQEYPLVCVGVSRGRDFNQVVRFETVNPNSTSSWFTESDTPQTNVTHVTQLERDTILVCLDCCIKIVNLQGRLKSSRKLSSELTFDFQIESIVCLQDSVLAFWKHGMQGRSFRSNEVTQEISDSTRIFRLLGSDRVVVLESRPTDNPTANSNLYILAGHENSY
Outline: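 GLK kinase reaction with 1 mM ATP and MBP substrate ran 60 min at 25 °C after 15 min preincubation of enzyme with compound. ADP formed was detected by ADP-Glo luminescence; percent inhibition used to derive IC50.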

[9] = column beside IV plasma Cl_obs (IV 1 mg/kg)
[10] = PO 5 mg/kg, DMSO/Solutol/saline

Row | IC50 [6] [nM] | SMILES | Maximum induction factor [1] | EC3x [1] [nM] | TGI ([3]; 75 mg/kg PO QD) [%] | IV Plasma Cl_obs [4] [mL/min/kg] | Maximum induction factor [5] | EC3x [5] [nM] | IC50 [7] [nM] | IC50 [8] [nM] | other results
1 |  | CN(C)Cc1nc(Nc2ccc(-c3cnc4cc(F)ccn34)c3c2C(=O)NC3)ccc1C1CCOCC1 [Compound D1, reference compound] | 4.6 | 528 | 38 | 17.6 | 8.1 | 544 |  |  | AUC ([2]; plasma, PO 10 mg/kg, saline): 396 ng·h/mL; half-life ([2]; plasma, PO 10 mg/kg, saline): 3.19 h; bioavailability ([2]; plasma, PO 10 mg/kg, saline, read-out: Bioavailability F %): 11.6%; half-life [4, 9]: 4.01 h; AUC ([4]; plasma, PO 5 mg/kg): 1720 ng·h/mL
2 | 7.01 | CN(C)C1CC2(CCOCC2)c2ccc(Nc3ccc(-c4cnc5cc(F)ccn45)c4c3C(=O)NC4)nc21 (centres unmarked) [Compound 2, 7-(7-(DIMETHYLAMINO)-2′,3′,5′,6,6′,7-HEXAHYDROSPIRO[CYCLOPENTYL]PYRIDINE-5,4′-PYRAN]-2-YL)AMINO)-4 (7-FLUOROIMIDAZOLE[1,2-A]PYRIDIN-3-YL)ISOINDOL-1-ONE] | 5.9 | 69 |  |  | 10 | 345 | 11.2 | 1170 | 
3 |  | CN(C)[C@@H]1CC2(CCOCC2)c2ccc(Nc3ccc(-c4cnc5cc(F)ccn45)c4c3C(=O)NC4)nc21 [Compound 2B, (R)-7-((7-(DIMETHYLAMINO)-2′,3′,5′,6,6′,7-HEXAHYDROSPIRO[CYCLOPENTADIENYL[B]PYRIDINE-54′-PYRAN]-2-YL)AMINO)-4-(7-FLUOROIMIDAZO[1,2-A]PYRIDIN-3-YL)ISOINDOLIN-1-ONE] | 7.7 | 22 | 70 | 6.16 | 10.9 | 90.7 | 1.02 | 464 | Bioavailability F % [2, 10]: 48.4%; PO Plasma AUC [2, 10]: 1082 ng·h/mL; T1/2 [2, 10]: 1.65 h; TGI ([3]; 25 mg/kg PO QD): 59%; TGI ([3]; 75 mg/kg PO BID): 90%; Bioavailability F % ([4]; IV 1 mg/kg and PO 5 mg/kg): 50.2%; PO Plasma AUC ([4]; PO 5 mg/kg): 6302 ng·h/mL; T1/2 [4, 9]: 8.81 h
4 | 61.2 | CN(C)C1CCC2(CCOCC2)c2ccc(Nc3ccc(-c4cnc5cc(F)ccn45)c4c3C(=O)NC4)cc21 (centres unmarked) [Compound 1] |  |  |  |  |  |  |  |  | 
